Experimental findings from patent US11939314B2, “Quinolin-2-one derivatives” (MERCK PATENT GMBH, priority 2016, dated 2024) are described below.

One experiment deals with T1, PDGFRalpha(V561D) (Homo sapiens, UniProt P16234, V561D).
T1 construct: recombinant human PDGFRalpha, amino acids 550end containing the V561 D mutation; 6His (N)
The experiment can be described thus: PDGFRalpha(V561D) assay. Type of experiment: biochemical. Conditions: recombinant human PDGFRalpha aa 550-end, 200 μM ATP, 1.4E-06 means 1.4×10^−6, read-out: Inhibition (IC50) of PDGFRα (V561D). As to the method: (§1) PDGFRalpha(V561D) (N-terminal 6His-tagged, recombinant human PDGFRalpha, amino acids 550end containing the V561 D mutation) is incubated with 8 mM MOPS pH 7.0, 0.2 mM EDTA, 250 μM GGMEDIYEFMGGKKK, 10 mM MgAcetate and [gamma-33P-ATP] (specific activity approx. 500 cpm/pmol, concentration 200 μM). The reaction is initiated by the addition of the MgATP mix. After incubation for 40 minutes at room temperature, the reaction is stopped by the addition of 3% phosphoric acid solution. 10 μL of the reaction is then spotted onto a P30 filtermat and washed three times for 5 minutes in 75 mM phosphoric acid and once in methanol prior to drying and scintillation counting.

The next experiment has as its target T2, c-Kit(V654A) (Homo sapiens, UniProt P10721, V654A).
T2 construct: amino acids 544-end containing the V654A mutation; GST (N)
The experiment can be described thus: c-Kit(V654A) assay. It counts as biochemical. Conditions: recombinant human c-Kit aa 544-end, 200 μM ATP, 1.4E-06 means 1.4×10^−6, read-out: Inhibition (IC50) of c-KIT (V654A). As to the method:
as §1, with “c-Kit(V654A)” for “PDGFRalpha(V561D)”, “GST-tagged,” for “6His-tagged,”, “c-Kit,” for “PDGFRalpha,”, “544-end” for “550end”, “V654A” for “V561 D”

T1 sequence (P16234 550-1089 V561D): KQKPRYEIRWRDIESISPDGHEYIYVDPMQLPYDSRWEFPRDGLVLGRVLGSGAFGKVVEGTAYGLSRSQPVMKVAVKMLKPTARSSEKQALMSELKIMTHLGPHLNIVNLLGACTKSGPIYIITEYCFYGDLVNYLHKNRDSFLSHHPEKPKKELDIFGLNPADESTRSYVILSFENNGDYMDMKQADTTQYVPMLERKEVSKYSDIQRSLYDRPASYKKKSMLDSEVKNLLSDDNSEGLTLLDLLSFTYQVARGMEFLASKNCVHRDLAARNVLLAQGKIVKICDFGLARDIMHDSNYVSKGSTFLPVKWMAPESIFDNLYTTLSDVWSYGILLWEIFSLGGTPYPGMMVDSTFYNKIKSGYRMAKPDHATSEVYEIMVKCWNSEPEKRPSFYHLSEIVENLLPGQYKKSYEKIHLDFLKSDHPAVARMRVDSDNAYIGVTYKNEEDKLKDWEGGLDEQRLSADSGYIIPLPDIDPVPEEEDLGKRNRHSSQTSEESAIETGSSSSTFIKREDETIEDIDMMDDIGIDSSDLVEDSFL
T2 sequence (P10721 544-976 V654A): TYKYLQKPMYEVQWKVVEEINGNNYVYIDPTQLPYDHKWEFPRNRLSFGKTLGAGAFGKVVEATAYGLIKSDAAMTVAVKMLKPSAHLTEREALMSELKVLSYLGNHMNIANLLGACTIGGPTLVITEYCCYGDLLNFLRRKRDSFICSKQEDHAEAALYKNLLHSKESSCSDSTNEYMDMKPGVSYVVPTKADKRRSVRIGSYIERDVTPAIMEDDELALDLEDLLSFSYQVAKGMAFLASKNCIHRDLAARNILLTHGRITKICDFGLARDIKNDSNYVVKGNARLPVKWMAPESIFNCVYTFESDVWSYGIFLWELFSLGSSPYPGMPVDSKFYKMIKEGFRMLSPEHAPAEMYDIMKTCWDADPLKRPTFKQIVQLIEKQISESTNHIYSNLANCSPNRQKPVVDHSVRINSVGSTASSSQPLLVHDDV

As to `O=C(c1ccc(-n2cc(-c3cc4cc(F)ccc4[nH]c3=O)nn2)cc1)N1CCC2(CC1)COC2` [A229, 6-fluoro-3-{1-[4-(2-oxa-7-aza-spiro[3.5]nonane-7-carbonyl)-phenyl]-1H-[1,2,3]triazol-4-yl}-1H-quinolin-2-one], the 50% inhibitory concentration (IC50) is 150 nM at PDGFRalpha(V561D) and 41 nM on c-Kit(V654A).
Take `COCCN(C)C(=O)c1ccc(-n2cc(-c3cc4cc(F)c(F)cc4[nH]c3=O)nn2)cc1` [A212, 4-[4-(6,7-difluoro-2-oxo-1,2-dihydro-quinolin-3-yl)-[1,2,3]triazol-1-yl]-N-(2-methoxy-ethyl)-N-methyl-benzamide]: the IC50 at PDGFRalpha(V561D) turned out to be 160 nM; on c-Kit(V654A) it was 1300 nM.
Regarding `O=C(c1ccc(-n2cc(-c3cc4ccccc4[nH]c3=O)nn2)cc1)N1CCOCC1` [A2, 3-{1-[4-(morpholine-4-carbonyl)-phenyl]-1H-[1,2,3]triazol-4-yl}-1H-quinolin-2-one], the half-maximal inhibitory concentration (IC50) on PDGFRalpha(V561D) came out at 12 nM; at c-Kit(V654A) it was 51 nM.
The corresponding values for `CN(C)C[C@H]1CCCN1C(=O)c1ccc(-n2cc(-c3cc4cc(Cl)ccc4[nH]c3=O)nn2)cc1` [A322, 6-chloro-3-{1-[4-((R)-2-dimethylaminomethyl-pyrrolidine-1-carbonyl)-phenyl]-1H-[1,2,3]triazol-4-yl}-1H-quinolin-2-one] are 65 nM and 25 nM.
As to `COC[C@H]1CCN(C(=O)c2ccc(-n3cc(-c4cc5cc(F)ccc5[nH]c4=O)nn3)cc2)C1` [A202, 6-fluoro-3-{1-[4-((S)-3-methoxymethyl-pyrrolidine-1-carbonyl)-phenyl]-1H-[1,2,3]triazol-4-yl}-1H-quinolin-2-one], the IC50 on PDGFRalpha(V561D) turned out to be 16 nM; at c-Kit(V654A) it was 57 nM.
As to `COC[C@@H]1CC[C@@H](COC)N1C(=O)c1ccc(-n2cc(-c3cc4cc(F)ccc4[nH]c3=O)nn2)cc1` [A217, 3-{1-[4-((2S,5S)-2,5-bis-methoxymethyl-pyrrolidine-1-carbonyl)-phenyl]-1H-[1,2,3]triazol-4-yl}-6-fluoro-1H-quinolin-2-one], the IC50 amounted to 46 nM on PDGFRalpha(V561D) and 350 nM at c-Kit(V654A).
Take `CN(C)C(=O)c1ccc(-n2cc(-c3cc4ccccc4[nH]c3=O)nn2)cc1` [A4, N,N-dimethyl-4-[4-(2-oxo-1,2-dihydro-quinolin-3-yl)-[1,2,3]triazol-1-yl]-benzamide]: the half-inhibitory concentration (IC50) on PDGFRalpha(V561D) stood at 19 nM; on c-Kit(V654A), 34 nM.
The corresponding values for `O=C(c1ccc(-n2cc(-c3cc4cc(F)ccc4[nH]c3=O)nn2)cc1)N1CCC(O)CC1` [A183, 6-fluoro-3-{1-[4-(4-hydroxy-piperidine-1-carbonyl)-phenyl]-1H-[1,2,3]triazol-4-yl}-1H-quinolin-2-one] are 26 nM and 7.5 nM.
Regarding `O=C(c1ccc(-n2cc(-c3cc4cc(F)ccc4[nH]c3=O)nn2)cc1)N1CCC(N2CCCC2)C1` (centres unmarked) [A100, 3-{1-[4-([1,3′]bipyrrolidinyl-1′-carbonyl)-phenyl]-1H-[1,2,3]triazol-4-yl}-6-fluoro-1H-quinolin-2-one], the figures for the IC50 at PDGFRalpha(V561D) and on c-Kit(V654A) were 63 nM and 20 nM, respectively.
The matching figures for `O=C(c1ccc(-n2cc(-c3cc4cc(F)c(F)cc4[nH]c3=O)nn2)cc1)C1CCNCC1` [A136, 6,7-difluoro-3-{1-[4-(piperidine-4-carbonyl)-phenyl]-1H-[1,2,3]triazol-4-yl}-1H-quinolin-2-one]: 18 nM and 15 nM.
The matching figures for `CN(C(=O)[C@H]1CCCO1)c1ccc(-n2cc(-c3cc4cc(F)ccc4[nH]c3=O)nn2)cc1` [A343, (R)-tetrahydro-furan-2-carboxylic acid {4-[4-(6-fluoro-2-oxo-1,2-dihydro-quinolin-3-yl)-[1,2,3]triazol-1-yl]-phenyl}-methyl-amide]: 85 nM and 9 nM.
`COC(=O)c1cccc(-n2cc(-c3cc4ccccc4[nH]c3=O)nn2)c1` [A23, 3-[4-(2-oxo-1,2-dihydro-quinolin-3-yl)-[1,2,3]triazol-1-yl]-benzoic acid methyl ester]: the half-maximal inhibitory concentration (IC50) on PDGFRalpha(V561D) worked out at 250 nM.
Still for that read-out and setting: the same measure for `O=C(c1ccc(-n2cc(-c3cc4ccccc4[nH]c3=O)cn2)cc1)N1CCNCC1` [A73, 3-{1-[4-(piperazine-1-carbonyl)-phenyl]-1H-pyrazol-4-yl}-1H-quinolin-2-one]: 440 nM; for `O=c1[nH]c2ccccc2cc1-c1cn(-c2ccccc2F)nn1` [A13, 3-[1-(2-fluoro-phenyl)-1H-[1,2,3]triazol-4-yl]-1H-quinolin-2-one]: 500 nM; for `COc1cnc2[nH]c(=O)c(-c3cn(-c4ccc(C(=O)N(C)C)cc4)nn3)cc2c1` [A16, 4-[4-(6-methoxy-2-oxo-1,2-dihydro-[1,8]naphthyridin-3-yl)-[1,2,3]triazol-1-yl]-N,N-dimethyl-benzamide]: 33 nM.
In the case of `CO[C@@H]1CCN(S(=O)(=O)c2ccc(-n3cc(-c4cc5cc(Cl)ccc5[nH]c4=O)nn3)cc2)C1` [A359, 6-chloro-3-{1-[4-((R)-3-methoxy-pyrrolidine-1-sulfonyl)-phenyl]-1H-[1,2,3]triazol-4-yl}-1H-quinolin-2-one], on c-Kit(V654A), the IC50 came to 13 nM.
Same read-out and setting: the result for `CS(=O)(=O)CC1CCN(C(=O)c2ccc(-n3cc(-c4cc5cc(F)ccc5[nH]c4=O)nn3)cc2)C1` (centres unmarked) [A284, 6-fluoro-3-{1-[4-(3-methanesulfonylmethyl-pyrrolidine-1-carbonyl)-phenyl]-1H-[1,2,3]triazol-4-yl}-1H-quinolin-2-one] reads 17 nM.
Still for that read-out and setting: the result for `Cc1c(-c2cn(-c3ccc(C(=O)N4CCOCC4)cc3)nn2)c(=O)[nH]c2ccccc12` [A185, 4-methyl-3-{1-[4-(morpholine-4-carbonyl)-phenyl]-1H-[1,2,3]triazol-4-yl}-1H-quinolin-2-one] reads 510 nM; that for `CN1CCC(Oc2ccc(-n3cc(-c4cc5cc(F)ccc5[nH]c4=O)nn3)cc2)CC1` [A375, 6-fluoro-3-{1-[4-(1-methyl-piperidin-4-yloxy)-phenyl]-1H-[1,2,3]triazol-4-yl}-1H-quinolin-2-one], 9.5 nM.
On the same count and under the same terms, the result for `CS(=O)(=O)[C@H]1CCN(C(=O)c2ccc(-n3cc(-c4cc5cc(F)ccc5[nH]c4=O)nn3)cc2)C1` [A283, 6-fluoro-3-{1-[4-((S)-3-methanesulfonyl-pyrrolidine-1-carbonyl)-phenyl]-1H-[1,2,3]triazol-4-yl}-1H-quinolin-2-one] reads 19 nM; that for `CN1CCC(Cc2ccc(-n3cc(-c4cc5cc(Cl)ccc5[nH]c4=O)nn3)cc2)CC1` [A374, 6-chloro-3-{1-[4-(1-methyl-piperidin-4-ylmethyl)-phenyl]-1H-[1,2,3]triazol-4-yl}-1H-quinolin-2-one], 17 nM; that for `O=c1[nH]c2ccc(F)cc2cc1-c1cn(-c2ccc(OC3CCCC3)cc2)nn1` [A364, 3-[1-(4-cyclopentyloxy-phenyl)-1H-[1,2,3]triazol-4-yl]-6-fluoro-1H-quinolin-2-one], 21 nM.
In the case of `CO[C@H]1CCN(S(=O)(=O)c2ccc(-n3cc(-c4cc5cc(Cl)ccc5[nH]c4=O)nn3)cc2)C1` [A361, 6-chloro-3-{1-[4-((S)-3-methoxy-pyrrolidine-1-sulfonyl)-phenyl]-1H-[1,2,3]triazol-4-yl}-1H-quinolin-2-one], on c-Kit(V654A), the IC50 amounted to 11 nM.
The same measure, in the same setting: the same measure for `CN1CC2(CCN(C(=O)c3ccc(-n4cc(-c5cc6cc(Cl)ccc6[nH]c5=O)nn4)cc3)C2)C1` [A290, 6-chloro-3-{1-[4-(2-methyl-2,6-diaza-spiro[3.4]octane-6-carbonyl)-phenyl]-1H-[1,2,3]triazol-4-yl}-1H-quinolin-2-one]: 14 nM.

In general, IC50 refers to the midpoint of a concentration-inhibition curve.
